This is an account of results in patent US12042472B2 (pHase Pharmaceuticals LLC, priority 2017, dated 2024).

The nature of this data set: in vivo. To be noted: for concentration at 0.033 h: Day 1, hour 0.033, LLQ 1 ng/mL. How it is done: Using a standard, by weight, randomization procedure, 21 male animals (weighing 3.25 to 3.73 kg at randomization), from a total of 36 male experimentally naïve New Zealand White Hra:(NZW)SPF albino rabbits (approximately 6 to 7 months of age), were assigned to the study as presented in Table 5.
To induce an anaphylactic syndrome, animals in Groups 1 to 4 were administered horse serum (0.2μ sterile filtered) via subcutaneous (“SC”) injection at dose volume of 2 mL/animal, followed two days later by an intravenous (“IV”) injection at a dose volume of 2 mL/animal.
Forty-one to 44 days following the beginning of the induction period, the animals were sedated by administration of 2 to 3 mg/kg via IM injection of acepromazine, 0.02 mg/kg via IM injection of buprenorphine and sevoflurane via inhalation.
Following induction of anesthesia, all animals were placed in dorsal recumbency position and an incision was made to locate the right or left femoral artery. An arterial sheath was introduced and advanced into the isolated artery and used to monitor blood pressure. Additionally, an off midline cervical neck incision was made to locate and isolate the left or right external jugular vein for collection of blood and for emergency drug administration, as needed.
Following induction of anesthesia and catheter placement, single or repeated challenge doses of 0.5 to 2 mL of filtered horse serum were administered intravenously to each animal in Groups 1 to 4.
Prior to tablet administration, the mouth of the animal was wet with 0.5 mL of tap water and the mouth was held shut for 15 to 30 seconds to help dissolve the tablet. For IM administration, the injections were made in the right rear flank of each animal.
Each 50 μL aliquot of standard, QC sample, and study sample was mixed with 200 μL of working internal standard solution (25 ng/mL in acetonitrile/methanol (50/50, v/v)). The sample was centrifuged, and a 200 μL aliquot of the resulting supernatant was transferred to a clean 96-well plate. The sample was evaporated and reconstituted with […] of water/formic acid (100/0.1, v/v). An aliquot was injected onto an LC-MS/MS system for analysis.
The liquid chromatography system used an ACE 5 C18 column, 50×2.1 mm (5 μm particle size) with an isocratic flow consisting of water/formic acid (100/0.1, v/v) and methanol/formic acid (100/0.05, v/v) at a flow rate of 400 μL/minute. The analyte and internal standard were detected using an SCIEX API 5000 triple quadrupole LC-MS/MS system equipped with an ESI (TurboIonSpray®) ionization source operated in the positive ion mode.
The lower limit of quantitation was 1 ng/ml and a linear 1/x2 weighting regression analysis was used.
Concentrations less than the lower limit of quantitation (LLOQ, <1.00 ng/mL) were reported as and set to zero. For each animal, the following pharmacokinetic parameters were determined: maximum observed plasma concentration (Cmax), time of maximum observed plasma concentration (Tmax), and area under the plasma concentration-time curve (AUC).
The formulation ratio was calculated using the following formula: Formulation Ratio=Mean AUC0-60 min Buccal Citrate÷Mean AUC0-60 min Buccal No citrate. The Induced Anaphylaxis to Non-induced anaphylaxis ratio was calculated using the following formula: Induced Anaphylaxis:Non-Induced Anaphylaxis=Mean AUC0-60 min Induced Anaphylaxis IM÷Mean AUC0-60 min Non-induced Anaphylaxis IM. Relative bioavailability (expressed as a percent) was calculated using the following formula: Relative Bioavailability=[AUC0-60 min/DoseBuccal (citrate and/or no citrate)]÷[AUC0-60 min/DoseIntramuscular (induced and/or non-induced)]*100.

As to `CNC[C@H](O)c1ccc(O)c(O)c1` [Epinephrine], the “Concentration (ng/mL), plasma epinephrine” value (Group 7, dose 0.3 mg, subject 701, male, Day 1, hour 0.333, LLQ 2 ng/mL) is listed as “BLQ”. Besides, the concentration at 0 h was found to be 2.48 ng/mL (male, New Zealand White Hra:(NZW)SPF, rabbit, plasma, intramuscular, 0.3 mg, Concentration (ng/mL), plasma epinephrine, Group 7, dose 0.3 mg, subject 701, male, Day 1, hour 0, LLQ 2 ng/mL); 1.92 ng/mL (male, New Zealand White Hra:(NZW)SPF, rabbit, plasma, intramuscular, 0.3 mg, Concentration (ng/mL), plasma epinephrine, Group 7, dose 0.3 mg, subject 703, male, Day 1, hour 0, LLQ 1 ng/mL); 2.29 ng/mL (male, New Zealand White Hra:(NZW)SPF, rabbit, plasma, intramuscular, 0.3 mg, Concentration (ng/mL), plasma epinephrine, Subject Group 3, dose 0.3 mg, male rabbits, Day 1, Hour 0). For the same compound, the concentration at 0.033 h was determined as 2.75 ng/mL (male, New Zealand White Hra:(NZW)SPF, rabbit, plasma, intramuscular, 0.3 mg, Concentration (ng/mL), plasma epinephrine, Group 7, dose 0.3 mg, subject 701, male) and 8.06 ng/mL (male, New Zealand White Hra:(NZW)SPF, rabbit, plasma, intramuscular, 0.3 mg, Concentration (ng/mL), plasma epinephrine, Group 7, dose 0.3 mg, subject 703, male). The compound also registered a concentration at 0.083 h (male, New Zealand White Hra:(NZW)SPF, rabbit, plasma, intramuscular, 0.3 mg, Concentration (ng/mL), plasma epinephrine, Group 7, dose 0.3 mg, subject 701, male, Day 1, hour 0.083, LLQ 2 ng/mL) of 4.32 ng/mL and a concentration at 0.083 h (male, New Zealand White Hra:(NZW)SPF, rabbit, plasma, intramuscular, 0.3 mg, Concentration (ng/mL), plasma epinephrine, Group 7, dose 0.3 mg, subject 703, male, Day 1, hour 0.083, LLQ 1 ng/mL) of 6.6 ng/mL. For the same compound, the concentration at 0.125 h stood at 5.73 ng/mL (male, New Zealand White Hra:(NZW)SPF, rabbit, plasma, intramuscular, 0.3 mg, Concentration (ng/mL), plasma epinephrine, Group 7, dose 0.3 mg, subject 701, male, Day 1, hour 0.125, LLQ 2 ng/mL) and 3.53 ng/mL (male, New Zealand White Hra:(NZW)SPF, rabbit, plasma, intramuscular, 0.3 mg, Concentration (ng/mL), plasma epinephrine, Group 7, dose 0.3 mg, subject 703, male, Day 1, hour 0.125, LLQ 1 ng/mL). In addition, the concentration at 0.167 h by setting is: (male, New Zealand White Hra:(NZW)SPF, rabbit, plasma, intramuscular, 0.3 mg, Concentration (ng/mL), plasma epinephrine, Group 7, dose 0.3 mg, subject 701, male, Day 1, hour 0.167, LLQ 2 ng/mL) 4.76 ng/mL; (male, New Zealand White Hra:(NZW)SPF, rabbit, plasma, intramuscular, 0.3 mg, Concentration (ng/mL), plasma epinephrine, Group 7, dose 0.3 mg, subject 703, male, Day 1, hour 0.167, LLQ 1 ng/mL) 2.32 ng/mL. The concentration at 0.25 h worked out at 2.44 ng/mL (male, New Zealand White Hra:(NZW)SPF, rabbit, plasma, intramuscular, 0.3 mg, Concentration (ng/mL), plasma epinephrine, Group 7, dose 0.3 mg, subject 701, male, Day 1, hour 0.25, LLQ 2 ng/mL) and 3.5 ng/mL (male, New Zealand White Hra:(NZW)SPF, rabbit, plasma, intramuscular, 0.3 mg, Concentration (ng/mL), plasma epinephrine, Group 7, dose 0.3 mg, subject 703, male, Day 1, hour 0.25, LLQ 1 ng/mL). This compound gave a concentration at 0.5 h (male, New Zealand White Hra:(NZW)SPF, rabbit, plasma, intramuscular, 0.3 mg, Concentration (ng/mL), plasma epinephrine, Group 7, dose 0.3 mg, subject 701, male, Day 1, hour 0.5, LLQ 2 ng/mL) of 2.06 ng/mL and a concentration at 0.5 h (male, New Zealand White Hra:(NZW)SPF, rabbit, plasma, intramuscular, 0.3 mg, Concentration (ng/mL), plasma epinephrine, Group 7, dose 0.3 mg, subject 703, male, Day 1, hour 0.5, LLQ 1 ng/mL) of 2.86 ng/mL. This compound also displayed a concentration at 0.75 h (male, New Zealand White Hra:(NZW)SPF, rabbit, plasma, intramuscular, 0.3 mg, Concentration (ng/mL), plasma epinephrine, Group 7, dose 0.3 mg, subject 701, male, Day 1, hour 0.75, LLQ 2 ng/mL) of 2.84 ng/mL and a concentration at 0.75 h (male, New Zealand White Hra:(NZW)SPF, rabbit, plasma, intramuscular, 0.3 mg, Concentration (ng/mL), plasma epinephrine, Group 7, dose 0.3 mg, subject 703, male, Day 1, hour 0.75, LLQ 1 ng/mL) of 5.36 ng/mL. Besides, the concentration at 1 h (male, New Zealand White Hra:(NZW)SPF, rabbit, plasma, intramuscular, 0.3 mg, Concentration (ng/mL), plasma epinephrine, Group 7, dose 0.3 mg, subject 701, male, Day 1, hour 1, LLQ 2 ng/mL) worked out at 3.1 ng/mL; the concentration at 1 h (male, New Zealand White Hra:(NZW)SPF, rabbit, plasma, intramuscular, 0.3 mg, Concentration (ng/mL), plasma epinephrine, Group 7, dose 0.3 mg, subject 703, male, Day 1, hour 1, LLQ 1 ng/mL) turned out to be 5.17 ng/mL; the concentration at 1 h (male, New Zealand White Hra:(NZW)SPF, rabbit, plasma, other: sublingual/buccal tablet, 35 mg, Concentration (ng/mL), plasma epinephrine, Group 2, dose 35 mg, subject 306, male, Day 1, hour 1, LLQ 2 ng/mL) is 10.6 ng/mL. The compound further returned a concentration at 0.333 h (male, New Zealand White Hra:(NZW)SPF, rabbit, plasma, intramuscular, 0.3 mg, Concentration (ng/mL), plasma epinephrine, Group 7, dose 0.3 mg, subject 703, male, Day 1, hour 0.333, LLQ 1 ng/mL) of 3.78 ng/mL.
